Tested on: Saccharomyces cerevisiae
Experiment: Antifungal activity against Saccharomyces cerevisiae
Format: functional

C=C1CC[C@H]2C(C)(C)CCC[C@]2(C)[C@H]1CC1OC(O)C=C1C(=O)O (stereo partly specified)
IC12: 150 µg/mL

— ChEMBL document CHEMBL1144095, “A new labdane diterpenoid from Renealmia alpinia collected in the Suriname rainforest” (1999)
